Values joined by “and” are separate entries in the source; they are usually repeats but may differ in a detail not shown here. Equal values may be shown once. Toxic doses and inconclusive results are not listed.

For this assay, the system named is L1210 leukemia ip in BDF1 mice, survival T/C. Kind of assay: NCI In Vivo Anticancer Drug Screen. Data for tumor model L1210 Leukemia (intraperitoneal) in B6D2F1 (BDF1) mice. The conditions noted are these: endpoint: mean survival time, higher = longer survival. In outline:
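Antitumor effect is assessed in tumor-bearing animals. Survival in the compound arm is compared with a vehicle-dosed control arm and expressed as their quotient.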

[1] abbreviates: dose: 100.0 mg/kg/injection, schedule: Q01DX009 (ip), vehicle: Klucel (hydroxypropylcellulose) (HPC).
[2] abbreviates: dose: 200.0 mg/kg/injection, schedule: Q01DX009 (ip), vehicle: Klucel (hydroxypropylcellulose) (HPC).
Setting [3] is: dose: 400.0 mg/kg/injection, schedule: Q01DX009 (ip), vehicle: Klucel (hydroxypropylcellulose) (HPC).
Setting [4] is: dose: 400.0 mg/kg/injection, schedule: Q04DX003 (ip), vehicle: saline with Tween-80.
[5] abbreviates: dose: 100.0 mg/kg/injection, schedule: Q01DX001 (ip), vehicle: saline.
The mark [6] stands for this setting: dose: 200.0 mg/kg/injection, schedule: Q01DX001 (ip), vehicle: saline.
[7] abbreviates: dose: 400.0 mg/kg/injection, schedule: Q01DX001 (ip), vehicle: saline.
[8] abbreviates: dose: 100.0 mg/kg/injection, schedule: Q04DX003 (ip), vehicle: Klucel (hydroxypropylcellulose) (HPC).
The mark [9] stands for this setting: dose: 200.0 mg/kg/injection, schedule: Q04DX003 (ip), vehicle: Klucel (hydroxypropylcellulose) (HPC).
Setting [10] is: dose: 400.0 mg/kg/injection, schedule: Q04DX003 (ip), vehicle: Klucel (hydroxypropylcellulose) (HPC).
[11] abbreviates: dose: 100.0 mg/kg/injection, schedule: Q01DX009 (ip), vehicle: saline with Tween-80.
The mark [12] stands for this setting: dose: 200.0 mg/kg/injection, schedule: Q01DX009 (ip), vehicle: saline with Tween-80.
Setting [13] is: dose: 400.0 mg/kg/injection, schedule: Q01DX009 (ip), vehicle: saline with Tween-80.
Where [14] appears, read: dose: 75.0 mg/kg/injection, schedule: Q01DX001 (ip), vehicle: saline.

Turning to `CC(C)CCCC(C)C1CCC2C3CC=C4CC([S+](C)C)CCC4(C)C3CCC12C` (stereo not given), the T/C is 96 % of control (dose: 25.0 mg/kg/injection, schedule: Q01DX009 (ip), vehicle: saline); 96 % of control (dose: 50.0 mg/kg/injection, schedule: Q01DX009 (ip), vehicle: saline); 98 % of control (dose: 100.0 mg/kg/injection, schedule: Q04DX003 (ip), vehicle: alcohol).

Regarding `CC12CCC(C1)C(C)(C)C2N1C(c2ccccc2)C1c1ccccc1` (stereo not given), the T/C was 87 % of control under setting [1], 87 % of control under setting [2] and 100 % of control under setting [3].

For the compound `CC(C)(C)C(=O)CC(=O)C(C)(C)C.CC(C)(C)C(=O)CC(=O)C(C)(C)C.CC(C)(C)C(=O)CC(=O)C(C)(C)C.CC(C)(C)C(=O)CC(=O)C(C)(C)C.[Er]`, the T/C was 108 % of control (dose: 100.0 mg/kg/injection, schedule: Q04DX003 (ip), vehicle: saline with Tween-80); 92 % of control (dose: 200.0 mg/kg/injection, schedule: Q04DX003 (ip), vehicle: saline with Tween-80); 88 % of control under setting [4].

Turning to `CC(O)(CC(=O)O)c1ccc([N+](=O)[O-])cc1` (stereo not given), the T/C is 96 % of control (dose: 50.0 mg/kg/injection, schedule: Q01DX001 (ip), vehicle: saline); 102 % of control under setting [5]; 108 % of control under setting [6]; 102 % of control under setting [7].

For `CCCCCCCCCCC(=O)OCC#CC#CCOC(=O)CCCCCCCCCC`, the T/C was 97 % of control under setting [1]; 103 % of control under setting [8]; 98 % of control under setting [2]; 92 % of control under setting [9]; 101 % of control under setting [3]; 91 % of control under setting [10].

For the compound `CCOC(=O)/C(C#N)=C\C1(C)CCC(C)=CO1` (stereo not given), the T/C under setting [11] was 96 % of control; the T/C (dose: 100.0 mg/kg/injection, schedule: Q04DX002 (ip), vehicle: saline with Tween-80) was 92 % of control; the T/C under setting [12] was 110 % of control; the T/C (dose: 200.0 mg/kg/injection, schedule: Q04DX002 (ip), vehicle: saline with Tween-80) is 115 % of control; the T/C under setting [13] is 100 % of control; the T/C (dose: 400.0 mg/kg/injection, schedule: Q04DX002 (ip), vehicle: saline with Tween-80) is 96 % of control.

For the compound `O=C(COc1ccc(Cl)cc1Cl)Nc1ccccc1F`, the T/C is 92 % of control (dose: 50.0 mg/kg/injection, schedule: Q01DX009 (ip), vehicle: saline with Tween-80); 98 % of control and 87 % of control under setting [11]; 89 % of control under setting [12]; 95 % of control under setting [13].

In the case of `O=S(=O)(F)c1cc(Cl)c(S)cc1Cl`, the T/C (dose: 25.0 mg/kg/injection, schedule: Q04DX003 (ip), vehicle: Klucel (hydroxypropylcellulose) (HPC)) is 96 % of control; the T/C (dose: 50.0 mg/kg/injection, schedule: Q04DX003 (ip), vehicle: Klucel (hydroxypropylcellulose) (HPC)) was 96 % of control; the T/C under setting [8] was 98 % of control and 106 % of control.

On to `CCC(CC)=NNS(=O)(=O)c1ccccc1`, for which the T/C is, setting by setting: under setting [14], 100 % of control; (dose: 150.0 mg/kg/injection, schedule: Q01DX001 (ip), vehicle: saline) 100 % of control; (dose: 300.0 mg/kg/injection, schedule: Q01DX001 (ip), vehicle: saline) 102 % of control.

Take `CS(=O)(=O)OCCN(CCOS(C)(=O)=O)c1ccc(C=Nc2ccc(C(=O)O)cc2)cc1`: the T/C by setting is: (dose: 2.5 mg/kg/injection, schedule: Q04DX003 (ip), vehicle: Klucel (hydroxypropylcellulose) (HPC)) 114 % of control; (dose: 20.0 mg/kg/injection, schedule: Q04DX003 (ip), vehicle: Klucel (hydroxypropylcellulose) (HPC)) 170 % of control; (dose: 40.0 mg/kg/injection, schedule: Q04DX003 (ip), vehicle: Klucel (hydroxypropylcellulose) (HPC)) 112 % of control.

`CC1OC(=O)C(C)(Br)OC1=O` (stereo not given): the T/C runs as follows: (dose: 100.0 mg/kg/injection, schedule: Q01DX001 (ip), vehicle: acetone) 93 % of control; (dose: 200.0 mg/kg/injection, schedule: Q01DX001 (ip), vehicle: acetone) 104 % of control.

On to `CC1(C)N=C(N)N=C(N)N1c1ccc(CC(CCc2ccccc2)C(=O)Nc2ccc(S(=O)(=O)F)cc2)cc1` (stereo not given), for which the T/C is 90 % of control (dose: 100.0 mg/kg/injection, schedule: Q01DX001 (ip), vehicle: Klucel (hydroxypropylcellulose) (HPC)); 97 % of control (dose: 200.0 mg/kg/injection, schedule: Q01DX001 (ip), vehicle: Klucel (hydroxypropylcellulose) (HPC)); 90 % of control (dose: 400.0 mg/kg/injection, schedule: Q01DX001 (ip), vehicle: Klucel (hydroxypropylcellulose) (HPC)).

As to `COC(=O)c1nc2ccc([N+](=O)[O-])cc2n1O`, the T/C is 101 % of control under setting [5], 93 % of control under setting [6] and 96 % of control under setting [7].

Regarding `O=C1N(Cc2ccccc2)C(=O)C(Cc2ccccc2)(Cc2ccccc2)C(=O)N1Cc1ccccc1`, the T/C was 101 % of control (dose: 100.0 mg/kg/injection, schedule: Q01DX001 (ip), vehicle: carboxymethylcellulose (CMC)); 97 % of control (dose: 200.0 mg/kg/injection, schedule: Q01DX001 (ip), vehicle: carboxymethylcellulose (CMC)); 95 % of control (dose: 400.0 mg/kg/injection, schedule: Q01DX001 (ip), vehicle: carboxymethylcellulose (CMC)).

Take `CCOC(=O)C(N)=S`: the T/C by setting is: (dose: 100.0 mg/kg/injection, schedule: Q04DX003 (ip), vehicle: saline) 98 % of control; (dose: 200.0 mg/kg/injection, schedule: Q04DX003 (ip), vehicle: saline) 96 % of control; (dose: 400.0 mg/kg/injection, schedule: Q04DX003 (ip), vehicle: saline) 88 % of control.

For the compound `Cc1ccc(S(=O)(=O)N/N=C/C(=O)O)cc1`, the T/C was 116 % of control (dose: 10.0 mg/kg/injection, schedule: Q01DX009 (ip), vehicle: other); 118 % of control (dose: 15.0 mg/kg/injection, schedule: Q01DX009 (ip), vehicle: other); 158 % of control (dose: 27.0 mg/kg/injection, schedule: Q01DX009 (ip), vehicle: saline); 166 % of control (dose: 33.0 mg/kg/injection, schedule: Q01DX009 (ip), vehicle: other); 153 % of control (dose: 40.0 mg/kg/injection, schedule: Q01DX009 (ip), vehicle: saline); 108 % of control (dose: 50.0 mg/kg/injection, schedule: Q01DX009 (ip), vehicle: water). Moreover, the T/C was 119 % of control under setting [14]; 164 % of control (dose: 90.0 mg/kg/injection, schedule: Q01DX009 (ip), vehicle: saline); 120 % of control under setting [11]; 92 % of control (dose: 100.0 mg/kg/injection, schedule: Q01DX009 (ip), vehicle: water); 97 % of control (dose: 112.0 mg/kg/injection, schedule: Q01DX009 (ip), vehicle: other); 97 % of control (dose: 144.0 mg/kg/injection, schedule: Q04DX003 (ip), vehicle: saline with Tween-80). In addition, the T/C (dose: 150.0 mg/kg/injection, schedule: Q01DX009 (ip), vehicle: saline with Tween-80) was 116 % of control; the T/C under setting [12] is 112 % of control; the T/C (dose: 240.0 mg/kg/injection, schedule: Q04DX003 (ip), vehicle: saline with Tween-80) is 107 % of control; the T/C under setting [4] was 108 % of control; the T/C (dose: 500.0 mg/kg/injection, schedule: Q01DX009 (ip), vehicle: saline with Tween-80) was 117 % of control.

With `COC(=O)CCNCc1ccccc1`, the T/C runs as follows: under setting [1], 103 % of control; under setting [8], 106 % of control; under setting [2], 99 % of control; under setting [9], 98 % of control; under setting [3], 99 % of control; under setting [10], 103 % of control.

Values taken from PubChem BioAssay AID248 (DTP/NCI, 2004).
